Results as given in ChEMBL document CHEMBL1139072, “A molecular modeling analysis of novel non-hydroxamate inhibitors of TACE” (Bioorg Med Chem Lett, 2007).

Legend:
[1] = target: Disintegrin and metalloproteinase domain-containing protein 17 (Sus scrofa, UniProt O77636); test: Inhibition of porcine TACE
[2] = Dissociation constant, pKa in water; format: physicochemical

Chain of Disintegrin and metalloproteinase domain-containing protein 17 (O77636 whole entry, the tested form may be a part): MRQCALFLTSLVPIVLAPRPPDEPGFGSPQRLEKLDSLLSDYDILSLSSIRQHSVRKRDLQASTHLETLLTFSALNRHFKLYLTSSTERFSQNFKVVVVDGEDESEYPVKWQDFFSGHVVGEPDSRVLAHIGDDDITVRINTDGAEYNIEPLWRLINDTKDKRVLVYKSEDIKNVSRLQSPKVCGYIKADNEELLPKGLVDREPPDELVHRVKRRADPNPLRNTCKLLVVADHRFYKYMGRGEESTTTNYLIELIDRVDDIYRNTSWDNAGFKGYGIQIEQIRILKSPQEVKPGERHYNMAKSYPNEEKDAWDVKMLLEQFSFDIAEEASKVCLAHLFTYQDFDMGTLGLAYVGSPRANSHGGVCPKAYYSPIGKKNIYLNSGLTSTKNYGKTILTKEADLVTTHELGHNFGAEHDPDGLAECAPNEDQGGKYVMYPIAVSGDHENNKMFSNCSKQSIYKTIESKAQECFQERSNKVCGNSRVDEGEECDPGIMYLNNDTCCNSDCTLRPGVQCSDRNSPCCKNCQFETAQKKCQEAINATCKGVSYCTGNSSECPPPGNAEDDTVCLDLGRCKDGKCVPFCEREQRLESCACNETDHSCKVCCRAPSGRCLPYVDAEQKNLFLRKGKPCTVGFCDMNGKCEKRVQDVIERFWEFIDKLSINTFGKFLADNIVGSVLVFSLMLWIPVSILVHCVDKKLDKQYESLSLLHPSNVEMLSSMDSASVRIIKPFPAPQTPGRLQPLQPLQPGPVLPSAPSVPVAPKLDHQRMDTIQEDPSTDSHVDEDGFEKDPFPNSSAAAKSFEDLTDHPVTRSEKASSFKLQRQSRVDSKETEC

| Compound | IC50 [1] | pKa [2] |
| --- | --- | --- |
| Cc1cc(COc2ccc(C(=O)N[C@H]3CNC[C@@]34NC(=O)NC4=O)cc2)c2ccccc2n1 | 25 nM |  |
| Cc1cc(COc2ccc(C(=O)N[C@@H]3CNC[C@]34NC(=O)NC4=O)cc2)c2ccccc2n1 | 900 nM |  |
| Cc1cc(COc2ccc([C@@]3(C)CCN([C@@H](C)C(=O)NO)C3=O)cc2)c2ccccc2n1 | < 1 nM | 9 |
| Cc1cc(COc2ccc(C3(N4CCN(C)CC4)C(=O)NC(=O)NC3=O)cc2)c2ccccc2n1 | 91 nM | 7.2 |
| Cc1cc(COc2ccc(NC(=O)[C@@H]3CCC[C@]34NC(=O)NC4=O)cc2)c2ccccc2n1 | 64 nM |  |
| Cc1cc(COc2ccc(NC(=O)C[C@H]3CCC[C@]34NC(=O)NC4=O)cc2)c2ccccc2n1 [listing 1 of 2 here] | 17 nM |  |
| Cc1cc(COc2ccc(NC(=O)C[C@@H]3CCC[C@]34NC(=O)NC4=O)cc2)c2ccccc2n1 | 7400 nM |  |
| Cc1cc(COc2ccc(NC(=O)C[C@@H]3CCC[C@@]34NC(=O)NC4=O)cc2)c2ccccc2n1 | 11 nM |  |
| Cc1cc(COc2ccc(NC(=O)[C@H]3CCC[C@]34NC(=O)NC4=O)cc2)c2ccccc2n1 | 230 nM |  |
| Cc1cc(COc2ccc(NC(=O)C[C@H]3CCC[C@]34NC(=O)NC4=O)cc2)c2ccccc2n1 [listing 2 of 2 here] | 900 nM | 8.9 |
| Cc1cc(COc2ccc(C(=O)NCC3NC(=O)NC3=O)cc2)c2ccccc2n1 (centres undefined) | 98 nM |  |
